Data as given in patent US20130261146A1, “NITRIC OXIDE AND ITS BIOMEDICAL SIGNIFICANCE” (The Research Foundation of State University of New York, priority 2010, published 2013).

Key:
[1] = test system: SK-N-MC (ATCC # HBT-10) cells; assay: NO determination of SK-N-MC cells treated with plant extractions; type: cell-based; details: 6 mg of crude extraction
Procedure: Employing the isolation and purification techniques described above, a variety of herbaceous plants were analyzed for their ability to release cNOS—derived nitric oxide in the pedal ganglia and in publicly available SK-N-MC (ATCC # HBT-10) and PC-12 (ATCC # CRL 1721) cells. In Table I, a plus sign indicates detection of at least 1 nM nitric oxide. […] In Table II, results in the SK-N-MC cell line are set forth; the concentration of plant material used and the quantity of NO detected is indicated. […] In Table III, results are set forth for the identical procedures performed using the ganglia cell line. The types of plant materials employed are indicated, for example flowers, leaves, roots, rhizomes, stems, bark. Where not specified, leaves were employed.

[2] = test system: E. coli bacteria; assay: Inhibition of bacterial growth in culture; type: cell-based; details: E. coli incubated 5 and 24 hours at 37° C, streaked on LB-agar overnight
Procedure: Example 9 illustrates the anti-microbial effects of extracts including the active chemical agents on cells. A dried, powdered, formulation of a 1:1 mixture of the wheat grass extract and white willow bark extract prepared in Example 1 above was tested for its ability to inhibit bacterial growth in culture. The formulation was reconstituted in 10 ml of LB broth (Amersham Biosciences, Inc.). The broth was then inoculated with E. coli bacteria and incubated for 5 and 24 hours at 37° C. 20 μl of the cultures were streaked on LB-agar plates and incubated overnight at 37° C. […] An additional control experiment was conducted with the known antibacterial agent, SNAP. One μg/ml SNAP was added to LB broth. The broth was then inoculated with E. coli bacteria and incubated for 5 and 24 hours at 37° C. 20 μl of the cultures were streaked on LB-agar plates and incubated overnight at 37° C. Bacterial growth was decreased in the SNAP culture at 5 and 24 hours, as compared to the control.

Structure (SMILES)	Results (nM), NO determination of SK-N-MC cells [1] [nM]	bacterial growth versus control (LB broth alone) [2]
O=c1c(O)c(-c2ccc(O)c(O)c2)oc2cc(O)cc(O)c12 [Quercetine]	14	–
CC(=O)NC(C(=O)O)C(C)(C)SN=O (racemic) [SNAP, S-nitroso-N-acetyl-DL-penicillamine]	–	decreased
